The text below walks through data of publication PMC11887451, “Leveraging Immunogenic Cell Death to Enhance the Immune Response against Malignant Pleural Mesothelioma Tumors” (Journal of the American Chemical Society, 2025).

SMILES strings stand for the structures.

For experiment [1], the system named is extracellular HMGB1 from AB12 cells. Description: Western blot of extracellular HMGB1 in supernatants. Conditions: AB12, 5 × IC50, 240 min. Type of experiment: cell-based, mouse. The protocol: cells were lysed with 200 µL of RIPA buffer, scraped, collected into 2 mL microtubes, sonicated for 45 sec on ice and centrifuged at 12000 × g for 20 min at 4 °C.
Protein concentration was measured by BCA Protein Assay Kit (PierceTM). 30 µg protein were reconstituted in loading buffer (5× Laemmli Buffer with 5% DTT) and heated at 95 °C for 10 min. Subsequently, the protein mixtures were resolved on 10% SDS-PAGE gels (BeyoGelTM)by electrophoresis ( 80 V for 20 min followed by 1 00 V for 60 min) and transferred onto a nitrocellulose membrane (250 mA for 2 h).
For Western Blot detection of extracellular HMGB1 protein, AB12 cells were seeded into Cellstar 6-well plates (Greiner Bio -One) at a density of 1 × 10^6 cells/well (2 ml per well). […]
After incubation with HRP-conjugated secondary antibodies (Catalogue Number: 7074P2, Cell Signaling Technology) in 2% BSA (w/v) in wash buffer at RT for 2 h, the membranes were washed with wash buffer 3 times for 5-10 min. Immune complexes were detected with SuperSignal™ West Atto Ultimate Sensitivity Substrate (A38554, Thermo Scientific) and analyzed using enhanced chemiluminescence imaging (Biorad). β-Actin was used as a loading control. […]
GA5010)). Luminescence was measured using Molecular Devices SpectraMax iD5 plate reader. […] The luminescence data was recorded for a total duration of 6 h following the treatment. […]
(A western blot detects proteins with antibodies after separation by electrophoresis.)

Experiment [2] concerns patient-derived VMC23 cell line (epithelioid MPM). Description: MTT cytotoxicity assay, 72 h, VMC23. Type of experiment: cell-based, human. Conditions: exposure time 72 h. (Tetrazolium dyes change colour on reduction, which living cells bring about.)
Excerpt: Human malignant mesothelioma cancer cell lines JU77 and LO68 were obtained from Cell Bank Australia (Children's Medical Research Institute, Westmead, Australia). Mouse malignant mesothelioma cancer cell line AB12, human nonmalignant mesothelioma cancer cell line Met5A (mesothelial cells), mouse macrophage cell line J774 and human monocytic cell line THP-1 were obtained from American Type Culture Collection (ATCC) (Rockville, MD, USA). Human malignant mesothelioma cell lines VMC23 (epithelial), Meso82 (sarcomatous), Meso92 (biphasic), were kindly provided by Prof. Walter Berger (Medical University of Vienna). All cells except for J774 were cultured in RPMI and J774 cells were cultured in DMEM. Both types of media were supplemented with 10% FBS and 1% penicillin-streptomycin (10,000 U/mL). Cells were grown in tissue culture flasks (75 cm2 and 25 cm2, SPL Life Sciences Co., Ltd., Korea). All cell lines were grown at 37 °C in a humidified atmosphere of 95% air and 5% CO 2 and passaged when they reached 80–90% confluency. All Au stock solutions were prepared in 1% DMSO in the respected medium, ensuring that cell viability was not inhibited.
The cytotoxicity of compounds was determined using an MTT colorimetric test. The cells were harvested from culture flasks by trypsinization and seeded into Cellstar 96 -well microculture plates (Greiner Bio -One) at the seeding density of 6000 cells per well (6 × 10^4 cells/mL). After
the cells were allowed to resume exponential growth for 16 h, they were exposed to drugs at
different concentrations in media for 72 h. The drugs were diluted in a complete medium at the desired concentration added to each well (100 μL) and serially diluted in other wells. After exposure for 72 h, the media was replaced with MTT in media (5 mg/mL, 100 μL/well) and
incubated for an additional 50 min. Subsequently, the medium was aspirated, and the purple formazan crystals formed in viable cells were dissolved in DMSO (100 μL/well). Optical densities were measured at 570 nm using a BioTek Synergy H1 microplate and MultiskanTM SkyHigh plate readers. The quantity of viable cells was expressed in terms of treated/control (T/C) values in comparison to untreated control cells, and 50% inhibitory concentrations (IC 50) were calculated from concentration-effect curves by interpolation. An evaluation was based on means from at least three independent experiments, each comprising three replicat es per
DMSO had not impact on the cell viability at the concentrations used.
The test system of experiment [3] is patient-derived Meso84 cell line (sarcomatoid MPM). Briefly: MTT cytotoxicity assay, 72 h, Meso84. The class given is cell-based, human. Conditions: exposure time 72 h.
In experiment [4] the test system is AB12 cells in BALB/c mice. Description: In vivo vaccination model. Set-up: species or system mouse. Conditions: within the first 30 days after vaccination, n = 8.
Excerpt: Initially, AB12 cells underwent pretreatment with varying concentrations of Au(III) complexes, and the induced cell death and release of desired ICD biomarkers were monitored over time. Upon reaching a cell death rate of 65%–75%, BALB/c mice (n = 8) were subcutaneously injected in the left flank with a vaccine containing 3 × 10^5 of live/dying/dead cells, while the vehicle group received injections of PBS. Seven days postvaccine administration, the immunized mice were rechallenged by inoculating the same number of live AB12 cells (without any prior treatment) into the right flanks (Figure 5A). The progression of tumor growth on the right flanks was monitored using a caliper.
AB12 cells were seeded into Cellstar 24-well plates (Greiner Bio-One) at a density of 1.8 × 104
cells/ml (1 ml per well) and allowed to grow exponentially for 16 hours. Subsequently, the
medium was replaced with 1 ml of fresh medium containing compounds of interest at
predetermined concentrations (with a minimum of 4 wells per treatment condition). These
concentrations were selected to induce 65-75% cell death.
Subsequently, the culture
medium was aspirated, and the cells were washed twice with 1 mL of PBS. The cell
concentration was adjusted to 3 × 10^5 cells (including dead/dying/live cells) per 100 μL of PBS,
and the ratio of dead/live cells was assessed using the Invitrogen Countess 3 cell counter. In
the subsequent experiment, BALB/c mice (8 mice per group) were subcutaneously injected
with 0.1 mL of AB12 cells (3 × 10^5 cells/mL, including dead/dying/live cells) or the
corresponding vehicle (PBS) on the left flank. Tumor growth was monitored daily.
After 7 days, the mice were subcutaneously injected with
0.1 mL of AB12 cells (3 × 10^5 cells/mL, live cells) on the right flank. Regular measurements
of body weights and tumor sizes were taken. Mice that developed palpable tumors were
euthanized for further analysis.
In experiment [5] the test system is murine malignant mesothelioma cell line AB12. Description: MTT cytotoxicity assay, 72 h, AB12. Conditions: exposure time 72 h. Type of experiment: cell-based, mouse.
The subject of experiment [6] is human malignant mesothelioma cell line LO68. Description: MTT cytotoxicity assay, 72 h, LO68. The class given is cell-based. Conditions: exposure time 72 h.
The subject of experiment [7] is human nonmalignant mesothelioma cell line Met5A. Description: MTT cytotoxicity assay, 72 h, Met5A. Conditions: exposure time 72 h. Type of experiment: cell-based.
Experiment [8] deals with patient-derived Meso92 cell line (biphasic MPM). Description: MTT cytotoxicity assay, 72 h, Meso92. The class given is cell-based, human. The settings on record: exposure time 72 h.
In another experiment the test system is HMGB1 in AB12 cells. Briefly: HMGB1 detection, confocal microscopy. The class given is cell-based, mouse. Conditions: AB12, 5 × IC50. The protocol: mL per dish). […] Afterwards, the […]
concentrations for 2 h at 37°C. […]
were stored in 1 mL of PBS. The confocal images were acquired by Laser Confocal Scanning […]
dishes were washed twice with 1 mL of PBS. The dishes were then incubated with HMGB1 […]
washed with 1 mL of PBS. Samples were stored in 1 mL of PBS. The confocal images were acquired by Laser Confocal Scanning Microscope (Leica SPE).
AB12 cells were seeded into the confocal dish (Biosharp) at a density of 3 × 10^5 cells/well (1 […]
mL per well). […] The cell culture […]
medium was aspirated and washed with PBS (2 × 1 ml). In a dimly lit setting, a solution of H2DCFDA (2',7'-dichlorodihydrofluorescein diacetate) in 1 × HBSS (10 μM, 1 mL) was added to each well and allowed to incubate for 15 min at 37 °C. Following this, the H 2DCFDA solution was aspirated and the wells were rinsed with HBSS (2 × 1 ml). Subsequently, the cells were treated with fresh colo urless cell culture medium containing compounds of interest at […]
Subsequently, the cells were treated with a culture medium containing 1 μM of Mitotracker TM Deep Red, 1 μM ER-Tracker™ Blue-White DPX and 1 μg/mL of Hoechst 33342 for 30 minutes. […] Images were captured using Laser Confocal Scanning Microscope (Leica SPE) and analyzed using the Microscope Software Platform LAS X Life Science. […]

Experiment [9] relates to human malignant mesothelioma cell line JU77. Briefly: MTT cytotoxicity assay, 72 h, JU77. The class given is cell-based. The settings on record: exposure time 72 h.
Another experiment relates to colon cancer cells. Details: method as in PMID 33237764. The settings on record: immunocompetent mice; cited from earlier work.
Experiment [10] has as its system hepatocellular carcinoma tumors. Set-up: method as in PMID 38261008, PMID 36827091. Conditions: cited from earlier work.

A word on the IC50: it is the concentration that inhibits the measured activity by half. A high value points to weaker potency in that assay. Turning to `CCCC[N+](CCCC)=C1[S][Au-]2([S]1)[c]1ccccc1Cc1cccc[n+]12.F[P-](F)(F)(F)(F)F` (stereo not drawn) [2C], in [1], the “extracellular HMGB1 in supernatant, Western Blot” value was “presence of extracellular HMGB1”. Further, the IC50 was 2.4 ± 0.5 µM in experiment [2]; 3.9 ± 0.7 µM in experiment [3]; 2.7 ± 0.3 µM in experiment [5]; 3 ± 0.3 µM in experiment [6]; 1.4 µM in [7]; 3.1 ± 0.7 µM in experiment [8]. Besides, inhibition in [9] was half-maximal at 2.7 ± 0.4 µM (IC50). In addition, the “mice that developed tumors after vaccination” value in [4] was “≈ 50%”. For the same compound, the “HMGB1 expression, confocal microscopy” value in the experiment with HMGB1 in AB12 cells is “confirmed by confocal microscopy”.
Consider `Cc1cc(C)c(-n2cc[n+](CCO)[c]2[Au-][c]2n(-c3c(C(C)C)cccc3C(C)C)c3c([n+]2-c2c(C(C)C)cccc2C(C)C)C(=O)c2ccccc2C3=O)c(C)c1` [Au1], for which the “tumor-free time of vaccinated mice” value in the experiment on colon cancer cells is given as “more than 42 days”.
With `CCn1cc[n+](CC)[c]1[Au-][C]#CCOC(=O)[C@@]1(C)CC[C@]2(C)CC[C@]3(C)C(=CC(=O)[C@@H]4[C@@]5(C)CC[C@H](OC(=O)CCCCC[P+](c6ccccc6)(c6ccccc6)c6ccccc6)C(C)(C)[C@@H]5CC[C@]43C)[C@@H]2C1.[Br-]` [Au4], the “tumor-free time of vaccinated mice” value in [10] is “more than 30 days”.
